Data: patent US7524930B2, “Tumor antigen” (Green Peptide Co., Ltd, priority 2003, dated 2009)
Values belong to the compound of their own block, whether it stands above or below them. Peptide text beside a SMILES is read from it.

Key:
[1] = tested on: peripheral blood mononuclear cells derived from a cancer patient; assay type: cell-based, human
Procedure: Moreover, CTL-activating ability of these 19 peptides was directly examined in a ^51Cr-releasing test using toxicity to the target cells as an indicator. Specifically, the above-described PBMC, in which CTL was induced, was further recultured to proliferate in the presence of autologous APC, IL-2, and a corresponding peptide. At about day 21 to 28 after the start of reculturing, PBMC was collected and cytotoxicity thereof was tested again by measuring IFN-γ and by a 6-h ^51Cr-releasing test. PBMC of the cancer patient, which was stimulated by these peptides, lysed the HLA-A2^+ tumor cells. However, the autologous EBV-B cells and the T cells stimulated by PHA, both of which were derived from normal cells and were expressing HLA-A2, and the HLA-A2^− tumor cell RERF-LC-MS, were not lysed.

[2] = tested on: OK-CTLp; assay: IFN-γ production by OK-CTLp against COS-7 cells cotransfected with cDNA clone and HLA-A0207 cDNA (ELISA); assay type: cell-based, human; settings: result in words
Procedure: 200 ng of the above-described plasmid DNA pool or clones of Panc-1 cell cDNA library was mixed with 200 ng of the cDNA of HLA-A0207 in 100 μl of Opti-MEM (Invitrogen Corp.) for 30 min. 50 μl of this mixture was added to COS-7 cells (5×10^3) and incubated for 6 h in a 96-well U-bottom type microculture plate (Nunc Corp.) for co-tranduction. Then, RPMI-1640 culture medium containing 10% FCS was added to and culturing was carried out for 2 days, followed by the addition of OK-CTLp (5×10^4) to each well. After a further 18 h incubation, 100 μl of the supernatant was collected and IFN-γ production was measured thereon by ELISA. […]
From the genes encoding the tumor antigens (Biochim. Biophys. Res. Commun., 281:936-944, 2001), which were detected by the SEREX (Serological Analysis of Recombinant cDNA Expression Libraries) method (Proc. Natl Acad. Sci. USA, 92:11910-[…], 1995) and already reported, two tumor antigen genes, KM-PA-2 and KM-PA-4; which can activate HLA-A2-restricted CTL, were found by using the same method as that of Example 2. […] However, among 1500 or more kinds of tumor antigens detected by this method, those identified as tumor antigens capable of inducing both cell-mediated immunity and humoral immunity are only MAGE-1, tyrosinase, and NY-ESO-1. […]

[3] = tested on: peripheral blood mononuclear cells derived from a cancer patient; assay: CTL induction by peptide from autologous PBMC of cancer patient, IFN-γ production on recognition of target cells (Example 5); assay type: cell-based, human; settings: PBMC stimulated with 10 μM peptide
[4] = tested on: peripheral blood mononuclear cells derived from a cancer patient; assay: as above; assay type: cell-based, human; settings: for IFN-γ production from peripheral blood mononuclear cells in recognition of target cells: PBMC stimulated with 10 μM peptide
[5] = biological target: T1, HLA-A0201 molecule (Homo sapiens, UniProt P04439, D140Y/D185E/D98H/E176V/E277Q/G131W/G231S/I119V/I121R/I166T/I218V/L300P/L318F/N151K/N90K/P208A/P217A/Q86G/Q94H/R138H/R169H/T345S); assay: Binding activity of peptide to HLA-A0201 molecule on T2 cells (FACScan, MFI); settings: peptide 10 μM, positive and negative controls 898 and 490
T1 construct: endogenous in cells; host or cells: T2 cells (TAP-deficient mutant line)
Procedure: Binding activity of the peptide to the HLA-A0201 molecule was tested using a T2 cell mutant strain (Cancer Res., 54:1071-1076, 1994. ) The T2 cell expresses the HLA-A2 molecule on a cell surface without binding to a peptide, because of deficiency of TAP. Specifically, the synthesized peptide (10 μM) and the T2 cells were incubated at 26° C. for 3 h and, subsequently, incubated in 5% CO2 and 95% air at 37° C. for 3 h.
Binding affinity of the peptides to HLA-A0201 molecule was expressed as a relative mean fluorescence intensity (MFI) of the HLA-A2 molecule.

Compound: CC(C)C[C@H](NC(=O)CN)C(=O)N[C@@H](CC(C)C)C(=O)N[C@@H](Cc1ccccc1)C(=O)N[C@@H](CC(C)C)C(=O)N[C@@H](Cc1c[nH]cn1)C(=O)N[C@H](C(=O)N[C@@H](CCCNC(=N)N)C(=O)N[C@H](C(=O)O)[C@@H](C)O)[C@@H](C)O [Peptide P17] (H-GLLFLHTRT-OH)
- Cytotoxicity of peptide-stimulated PBMC to the autologous EBV-B cells [1]: showed cytotoxicity

Compound: CC(C)C[C@H](NC(=O)[C@H](CCC(N)=O)NC(=O)[C@@H](N)CCC(N)=O)C(=O)N[C@@H](CS)C(=O)N[C@H](C(=O)N[C@@H](Cc1ccc(O)cc1)C(=O)N[C@@H](Cc1c[nH]c2ccccc12)C(=O)N[C@H](C(=O)N[C@H](C(=O)O)C(C)C)[C@@H](C)O)C(C)C [Peptide P19] (H-QQLCVYWTV-OH)
- Cytotoxicity of peptide-stimulated PBMC to the autologous EBV-B cells [1]: showed high cytotoxicity

Compound: KM-PA-2: tumor antigen gene from CFPAC-1 (SEREX), 2060 bp [AB060694], homologous to KIAA0124 / Bop1
- Recognition by OK-CTLp of COS-7 cells cotransfected with the cDNA and HLA-A0207 (IFN-γ production) [2]: induced IFN-γ production from OK-CTLp

Compound: KM-PA-4: tumor antigen gene from CFPAC-1 (SEREX), 1841 bp, identical to coactosin-like protein (CLP)
- Recognition by OK-CTLp of COS-7 cells cotransfected with the cDNA and HLA-A0207 (IFN-γ production) [2]: induced IFN-γ production from OK-CTLp

- MFI (relative mean fluorescence intensity of the HLA-A2 molecule; binding affinity to HLA-A0201) [5]: 910
Compound: LIADETSGL [Peptide P3, Gene 1 (UBE2V) 85-93]
- IFN-γ production from peripheral blood mononuclear cells in recognition of target cells ([3]; target COLO320 (HLA-A24/24)): 44 pg/mL
- IFN-γ production from peripheral blood mononuclear cells in recognition of target cells ([3]; target QG56 (HLA-A26/26)): 0 pg/mL
- IFN-γ production from peripheral blood mononuclear cells in recognition of target cells ([3]; target RERF-LC-MS (HLA-A11/11)): 0 pg/mL
- Recognition of tumor cells by PBMC stimulated in vitro with peptide (IFN-γ production) ([4]; SW620, CA9-22 and Panc-1 HLA-A2+ tumor cells, result in words): produced IFN-γ in a significant amount
- IFN-γ production from peripheral blood mononuclear cells in recognition of target cells ([4]; target CA9-22 (HLA-A0207/24)): 58 pg/mL
- IFN-γ production from peripheral blood mononuclear cells in recognition of target cells ([4]; target Panc-1 (HLA-A0201/11)): 289 pg/mL
- IFN-γ production from peripheral blood mononuclear cells in recognition of target cells ([4]; target SW620 (HLA-A0201/24)): 188 pg/mL
